Assays:
FL EGFR = target: T1, FL EGFR (Homo sapiens, UniProt P00533); assay: EGFR kinase assay (ADP-Glo); format: biochemical
T1 construct: kinase domain of EGFR (amino acids 695-1210); purchased Promega V3831
Method: A peptide containing the kinase domain of EGFR (amino acids 695-1210) was used to assess the inhibitory potency of the inhibitors. The ADP-Glo kinase assay (Promega V9101), and the EGFR kinase enzyme (Promega V3831) were used according to the supplier's instructions. Briefly, […] reactions were assembled in wells of a 384 well plate as follows: 5 μL of the kinase reaction, 5 μL of the ADP depletion reagent, and 10 μL of the luciferase reagent. For the kinase reaction: 1 μL of the inhibitor (dissolved in DMSO) was mixed with 2 μL EGFR peptide ([…]), 1 μL of a poly Glu4Tyr1 peptide (0.2 μg/μL), 1 μL reaction buffer, and 1 μL of ATP (final concentration of 5 μM). The kinase reaction was incubated at room temperature for 1 hour. 5 μL of the ATP depletion/kinase terminating reagent was mixed into each well and incubated at room temperature for 40 minutes. 10 μL of the kinase detection reagent containing luciferase was mixed into each well and incubated at room temperature for 30 minutes for bioluminescent detection of ADP produced from the kinase reaction in step 1. Bioluminescent signal was detected in a Tecan Safire^2 with a black plug covering the excitation filter, and an empty emission filter. The integration time was increased to […] to detect enough luminescence per reading.

BAX = BAX (Homo sapiens, UniProt Q07812); assay: SMAC mCherry assay in permeabilized Bax-/- Bak-/- BMK cells with recombinant Bax and cBid; format: cell-based, mouse; design: made in house; host or cells: Escherichia coli BL21-AI; conditions: 20 nM Bax, 0.5 nM cBid, 60-80 minutes; read-out: SMAC mCherry I.D IC50
Chain of BAX (Q07812 whole entry, the tested form may be a part): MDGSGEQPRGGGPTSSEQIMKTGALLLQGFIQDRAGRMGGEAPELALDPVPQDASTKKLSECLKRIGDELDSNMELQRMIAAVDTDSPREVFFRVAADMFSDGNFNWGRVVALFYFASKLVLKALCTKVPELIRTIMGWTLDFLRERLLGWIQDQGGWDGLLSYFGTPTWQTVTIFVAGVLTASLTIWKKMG
Method: Bax−/− Bak−/− double-knockout Baby Mouse Kidney (BMK) cells stably expressing a SMAC-(1-56)-mCherry fusion protein were cultured in DMEM complete (DMEM supplemented with 10% FBS and 1× Penicillin-Streptomycin) in 10 cm diameter tissue-culture treated dishes at 37° C. in a humidified incubator with 5% CO2 in air. Cells were washed with PBS, incubated with 1×Trypsin and resuspended in DMEM complete. Detached cells were seeded at 6000 cells per well in 50 uL DMEM complete into a 384 well Perkin-Elmer Phenoplate, incubated at room-temperature for 30 minutes followed by incubation overnight at 37° C. in a humidified incubator with 5% CO2 in air. Recombinant Bax and recombinant cBid were quickly thawed between fingers and 25 mM compound stocks in DMSO were thawed at room temperature. An 8 point titration curve of each compound was created in a 384-well source plate containing Trehalose-Hepes Buffer (THB, 135 mM trehalose, 50 mM KCl, 10 mM HEPES-KOH pH 7.4, 5 mM succinate, 20 uM EDTA, 20 uM EGTA, 0.1% BSA) supplemented with 1/1000 DRAQ5, 0.0025% digitonin, 20 nM Bax and 0.5 nM cBid. The source plate also contained control wells with THB supplemented with 1/1000 DRAQ5, 0.0025% digitonin plus 20 nM Bax (negative control) or 20 nM Bax and 0.5 nM cBid (positive control). Using the Vantage automated liquid handler, DMEM complete media was removed from the cells growing in the 384 well Phenoplate. The cells were washed 2× with 30 uL THB and then 25 uL from the 384 well source plate containing THB proteins and compounds was transferred to the cells growing in the 384 well plate. The cells were incubated for 60-80 minutes at 37 C in a humidified incubator with 5% CO2 in air and then imaged on the Opera Phenix Microscope. Two image channels were acquired: 1) DRAQ5 channel, to visualize nuclei and aid in cell segmentation and 2) SMAC-mCherry channel to visualize mitochondria that retain SMAC-mCherry. Data was processed using PerkinElmer Harmony software where the cells were segmented using the DRAQ5 channel and the mean intensity of SMAC-mCherry for each cell was calculated. The single-cell lobject level data was exported and then analyzed using R code. A per cell SMAC-mCherry intensity cutoff was calculated as 1.33 times the mean per cell SMAC-mCherry intensity of the THB+Bax control. Cells with a SMAC-mCherry intensity below or equal to the cutoff were scored as “released”. The percentage SMAC-mCherry release was calculated as the number of cells scored as “released” divided by the total amount of cells multiplied by 100. Dose-response curves were fit to a 4-parameter log-logistic model to determine the IC50 value for each compound.

T1 sequence (P00533 695-1210): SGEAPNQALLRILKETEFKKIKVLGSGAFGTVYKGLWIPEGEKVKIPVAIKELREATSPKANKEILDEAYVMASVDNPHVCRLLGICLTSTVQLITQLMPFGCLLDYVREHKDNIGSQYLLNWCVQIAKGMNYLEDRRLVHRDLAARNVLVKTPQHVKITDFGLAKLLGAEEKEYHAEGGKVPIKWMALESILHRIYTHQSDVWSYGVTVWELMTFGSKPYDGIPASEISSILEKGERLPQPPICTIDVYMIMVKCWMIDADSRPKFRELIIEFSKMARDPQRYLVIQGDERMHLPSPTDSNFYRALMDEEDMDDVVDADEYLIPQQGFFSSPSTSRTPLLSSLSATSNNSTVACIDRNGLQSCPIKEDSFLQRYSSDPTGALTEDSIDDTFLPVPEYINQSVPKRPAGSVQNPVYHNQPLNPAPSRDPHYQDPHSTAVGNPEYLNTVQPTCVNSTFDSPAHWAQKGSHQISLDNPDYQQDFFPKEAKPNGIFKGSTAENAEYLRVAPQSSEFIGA

IC50 (BAX) [µM] | Compound | IC50 (FL EGFR) [µM]
0.1 to 10 | O=C(CCCN1CCCCC1)Nc1ccc2ccnc(Nc3cc(Cl)c(F)c(Cl)c3)c2c1 [Compound 1-36, N-(1-((3,5-dichloro-4-fluorophenyl)amino)isoquinolin-7-yl)-4-(piperidin-1-yl)butanamide] | –
0.1 to 10 | O=C(CCCN1CCCCC1)Nc1ccc2ccnc(Nc3cc(F)c(Cl)c(Cl)c3)c2c1 [Compound 1-37, N-(1-((3,4-dichloro-5-fluorophenyl)amino)isoquinolin-7-yl)-4-(piperidin-1-yl)butanamide] | –
11 to 50 | N#Cc1cccc(Nc2nccc3ccc(NC(=O)CCCN4CCCCC4)cc23)c1 [Compound 1-41, N-(1-((3-cyanophenyl)amino)isoquinolin-7-yl)-4-(piperidin-1-yl)butanamide] | –
11 to 50 | COc1cc2ccnc(Nc3ccc(F)c(Cl)c3)c2cc1NC(=O)CCN1CCCC1 [Compound 1-42, N-(1-((3-chloro-4-fluorophenyl)amino)-6-methoxyisoquinolin-7-yl)-3-(pyrrolidin-1-yl)propanamide] | –
11 to 50 | COc1cc2ccnc(Nc3ccc(F)cc3Cl)c2cc1NC(=O)CCCN1CCCCC1 [Compound I-19, N-(1-((2-chloro-4-fluorophenyl)amino)-6-methoxyisoquinolin-7-yl)-4-(piperidin-1-yl)butanamide] | –

The remaining lines, values behind:

Compound | IC50 (BAX) [µM] | IC50 (FL EGFR) [µM]
COc1cc2ccnc(Nc3ccc(F)c(Cl)c3)c2cc1NC(=O)CCCN1CCCCC1 [Compound 1-1, N-(1-((3-chloro-4-fluorophenyl)amino)-6-methoxyisoquinolin-7-yl)-4-(piperidin-1-yl)butanamide] | 0.1 to 10 | > 10
O=C(CCCN1CCCCC1)Nc1ccc2ccnc(Nc3cc(Cl)c(Cl)cc3F)c2c1 [Compound 1-38, N-(1-((4,5-dichloro-2-fluorophenyl)amino)isoquinolin-7-yl)-4-(piperidin-1-yl)butanamide] | 0.1 to 10 | –
O=C(CCCN1CCCCC1)Nc1ccc2ccnc(Nc3cccc(Cl)c3F)c2c1 [Compound 1-39, N-(1-((3-chloro-2-fluorophenyl)amino)isoquinolin-7-yl)-4-(piperidin-1-yl)butanamide] | 0.1 to 10 | –
O=C(CCCN1CCCCC1)Nc1ccc2ccnc(Nc3ccc(F)c(Cl)c3F)c2c1 [Compound 1-40, N-(1-((3-chloro-2,4-difluorophenyl)amino)isoquinolin-7-yl)-4-(piperidin-1-yl)butanamide] | 0.1 to 10 | –
